“And” between values parts separate entries of the source, which are not always exact repeats. Equal values may be shown once. Where a name gives a salt, the structure may show the parent alone.
target: T1, human A2a receptor (Homo sapiens, UniProt P29274); test: A2a receptor competition binding assay using Scintillation Proximity technology; conditions: membranes from HEK293 cells expressing human A2a receptor; 0.5 nM tritiated radioligand; SPA beads; 1 h room temperature
T1 construct: purchased Perkin-Elmer RBHA2AM400UA; host or cells: HEK293 cell membranes
T1 sequence (P29274 whole entry): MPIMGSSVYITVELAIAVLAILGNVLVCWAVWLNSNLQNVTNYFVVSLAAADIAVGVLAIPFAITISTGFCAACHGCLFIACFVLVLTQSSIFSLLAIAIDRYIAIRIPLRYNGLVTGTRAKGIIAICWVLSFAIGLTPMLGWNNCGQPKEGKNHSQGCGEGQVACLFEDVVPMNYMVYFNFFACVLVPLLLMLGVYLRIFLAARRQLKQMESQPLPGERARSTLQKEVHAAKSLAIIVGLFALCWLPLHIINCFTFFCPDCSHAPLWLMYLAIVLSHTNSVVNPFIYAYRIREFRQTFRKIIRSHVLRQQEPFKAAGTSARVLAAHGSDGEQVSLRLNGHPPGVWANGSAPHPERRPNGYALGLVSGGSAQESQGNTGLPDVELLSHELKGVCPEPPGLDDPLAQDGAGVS
How it was run: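 Membranes of HEK293 cells expressing human A2a, pretreated with adenosine deaminase, incubated 1 h at room temperature with 0.5 nM tritiated pyrazolotriazolopyrimidine antagonist (final) and compound (3000 to 0.15 nM) on WGA SPA beads in Ca/Mg-free PBS with 10 mM MgCl2. Ki from EC50 via Cheng-Prusoff.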

EC50	SMILES
284 nM	COc1cccc2c1nc(N)n1nc(CN3CCn4c(nnc4C(F)(F)F)C3)nc21 [Ex-153, 7-methoxy-2-((3-(trifluoromethyl)-5,6-dihydro[1,2,4]triazolo[4,3-a]pyrazin-7(8H)-yl)methyl)-[1,2,4]triazolo[1,5-c]quinazolin-5-amine]
8.8 nM	Nc1nc2c(Br)cccc2c2nc(CN3CCc4cccnc4C3)nn12 [Ex-194]
2.7 nM	COc1cccc2c1nc(N)n1nc(CN3Cc4ccccc4C(C)(C)C3)nc21 [Ex-163, 2-((4,4-dimethyl-3,4-dihydroisoquinolin-2(1H)-yl)methyl)-7-methoxy-[1,2,4]triazolo[1,5-c]quinazolin-5-amine]
9.1 nM	COc1cccc2c1nc(N)n1nc(CN3CCc4ccc(CC(=O)Nc5cccnc5)cc4C3)nc21 [Ex-173, 2-(2-((5-amino-7-methoxy-[1,2,4]triazolo[1,5-c]quinazolin-2-yl)methyl)-1,2,3,4-tetrahydroisoquinolin-7-yl)-N-(pyridine-3-yt)acetamide]
2.9 nM	COc1cccc2c1nc(N)n1nc(CN3CCc4ccc(-c5cn(C)nc5C(F)(F)F)cc4C3)nc21 [Ex-184, 7-methoxy-2-((7-(1-methyl-3-(trifluoromethyl)-1H-pyrazol-4-yl)-3,4-dihydroisoquinolin-2(1H)-yl)methyl)-[1,2,4]triazolo[1,5-c]quinazolin-5-amine]
3.5 nM	COc1cccc2c1nc(N)n1nc(CCN3Cc4oc(C)nc4CC3C)nc21 (stereo not shown) [Ex-237, 2-(2-(2,6-dimethyl-6,7-dihydrooxazolo[5,4-c]pyridin-5(4H)-yl)ethyl)-7-methoxy-[1,2,4]triazolo[1,5-c]quinazolin-5-amine]
3.9 nM	COc1cccc2c1nc(N)n1nc(CN3CCc4ccc(-c5cnc(N)nc5C(F)(F)F)cc4C3)nc21 [Ex-186, 2-((7-(2-amino-4-(trifluoromethyl)pyrimidin-5-yl)-3,4-dihydroisoquinolin-2(1H)-yl)methyl)-7-methoxy-[1,2,4]triazolo[1,5-c]-quinazolin-5-amine]
35.5 nM	Cc1cccc2c1nc(N)n1nc(CN3Cc4cccnc4C3)nc21 [Ex-200, 2-((5H-pyrrolo[3,4-b]pyridine-6(7H)-yl)methyl)-7-methyl-[1,2,4]triazolo[1,5-c]quinazolin-5-amine]
11.2 nM	COc1cccc2c1nc(N)n1nc(CN3CCc4ccc(-c5ccccc5C(F)(F)F)cc4C3)nc21 [Ex-185, 7-methoxy-2-((7-(2-(trifluoromethyl)phenyl)-3,4-dihydroisoquinolin-2(1H)-yl)methyl)-[1,2,4]triazolo[1,5-c]quinazolin-5-amine]
612 nM	N#Cc1cccc2c1nc(N)n1nc(CN3Cc4cccnc4C3)nc21 [Ex-197]
7.3 nM	COc1cccc2c1nc(N)n1nc(CCN3Cc4nc(C5CC5)sc4C3)nc21 [Ex-241, 2-(2-(2-cyclopropyl-4H-pyrrolo[3,4-d]thiazol-5(6H)-yl)ethyl)-7-methoxy-[1,2,4]triazolo[1,5-c]quinazolin-5-amine]
5.7 nM	COc1cccc2c1nc(N)n1nc(CCCN3Cc4ccc(C(F)(F)F)cc4C3)nc21 [Ex-230, 7-methoxy-2-(3-(5-(trifluoromethyl)isoindolin-2-yl)propyl)-[1,2,4]triazolo[1,5-c]quinazolin-5-amine]
5.4 nM	COc1cccc2c1nc(N)n1nc(CCN3Cc4cnn(C)c4C3)nc21 [Ex-246, 7-methoxy-2-(2-(1-methylpyrrolo[3,4-c]pyrazol-5(1H,4H,6H)-yl)ethyl)-[1,2,4]triazolo[1,5-c]quinazolin-5-amine]
2.8 nM	COc1cccc2c1nc(N)n1nc(CCN3Cc4oc(C)nc4C(C)(C)C3)nc21 [Ex-235, 7-Methoxy-2-(2-(2,7,7-trimethyl-6,7-dihydro-oxazolo[5,4-c]pyridin-5(4H)-yl)ethyl)-[1,2,4]triazolo[1,5-c]quinazolin-5-amine, TFA]
3 nM	COc1cccc2c1nc(N)n1nc(C[C@@H](C)N3CCc4nc(C)sc4C3)nc21 [Ex-216, (R)-7-methoxy-2-(2-(2-methyl-6,7-dihydrothiazolo[5,4-c]pyridin-5(4H)-yl)propyl)-(1,2,4]triazolo[1,5-c]quinazolin-5-amine]
1 nM	COc1cccc2c1nc(N)n1nc(CCN3Cc4nc(C5CC5)oc4C3)nc21 [Ex-245]
5.7 nM	COc1cccc2c1nc(N)n1nc(C[C@H](C)N3CCc4oc(C)nc4C3)nc21 [Ex-215, (S)-7-methoxy-2-(2-(2-methyl-6,7-dihydrooxazolo[4,5-c]pyridin-5(4H)-yl)propyl)-[1,2,4]triazolo[1,5-c]quinazolin-5-amine]
4.6 nM	COc1cccc2c1nc(N)n1nc(CN3Cc4ccc(-c5cncnc5)cc4C3)nc21 [Ex-175]

Continued, compound first:

SMILES	EC50
COc1cccc2c1nc(N)n1nc(CCN3CCc4oc(C)nc4C3)nc21 [Ex-27, 7-methoxy-2-(2-(2-methyl-6,7-dihydrooxazolo[4,5-c]pyridin-5(4H)-yl)ethyl)-[1,2,4]triazolo[1,5-c]quinazolin-5-amine]	1.6 nM
COc1cccc2c1nc(N)n1nc(CN3CCc4cc(C#N)ccc4C3)nc21 [Ex-122, 2-((5-amino-7-methoxy-[1,2,4]triazolo[1,5-c]quinazolin-2-yl)methyl)-1,2,3,4-tetrahydroisoquinoline-6-carbonitrile]	6 nM
COc1ccc2c(nc(N)n3nc(CCN4Cc5cccnc5C4)nc23)c1OC [Ex-97]	238 nM
Nc1nc2cc(F)ccc2c2nc(CCN3Cc4ccc(F)cc4C3)nn12 [Ex-91, 8-fluoro-2-[2-(5-fluoro-1,3-dihydro-2H-isoindol-2-yl)ethyl][1,2,4]triazolo[1,5-c]quinazolin-5-amine]	26.1 nM
COc1cccc2c1nc(N)n1nc(C[C@@H](N3Cc4cccnc4C3)C(F)(F)F)nc21 [Ex-110]	39.9 nM
Nc1nc2c(F)cccc2c2nc(CCN3CCCc4ccccc43)nn12 [Ex-84]	6.3 nM
COc1cccc2c1nc(N)n1nc(CN3CCc4c(Br)ccnc4C3)nc21 [Ex-148]	7.2 nM
COc1cccc2c1nc(N)n1nc(CCN3Cc4cn[nH]c4C3)nc21 [Ex-51, 7-methoxy-2-(2-(pyrrolo[3,4-c]pyrazol-5(1H,4H,6H)--yl)ethyl)-[1,2,4]triazolo[1,5-c]quinazolin-5-amine]	2.9 nM
COc1cccc2c1nc(N)n1nc(CC(=O)N3CCc4ccccc4CC3)nc21 [Ex-78]	13.8 nM
COc1cccc2c1nc(N)n1nc(CCN3CCc4sc(C(F)(F)F)nc4C3)nc21 [Ex-26, 7-methoxy-2-(2-(2-(trifluoromethyl)-6,7-dihydrothiazolo[4,5-c]pyridin-5(4H)-yl)ethyl)-[1,2,4]triazolo[1,5-c]quinazolin-5-amine]	0.5 nM
COc1cccc2c1nc(N)n1nc(CCN3Cc4ccc(N5C[C@@H](C)O[C@@H](C)C5)nc4C3)nc21 [Ex-69]	5.2 nM
Nc1nc2cc(F)ccc2c2nc(CCN3CCCc4ccccc43)nn12 [Ex-94]	27.3 nM
CCCC(Cc1nc2c3cccc(OC)c3nc(N)n2n1)N1Cc2cccnc2C1 (stereo not shown) [Ex-115]	21.6 nM
Nc1nc2cc(F)ccc2c2nc(CCN3Cc4cccc(F)c4C3)nn12 [Ex-96]	56.2 nM
COc1cccc2c1nc(N)n1nc(CCN3CCCc4[nH]nc(C5CC5)c43)nc21 [Ex-52, 2-(2-(3-cyc1opropyl-6,7-dihydro-1H-pyrazolo[4,3-b]pyridin-4(5H)-yl)ethyl)-7-methoxy[1,2,4]triazolo[1,5-c]quinazolin-5-amine]	8.8 nM
COc1cccc2c1nc(N)n1nc(CCN3CCn4c(nnc4C(=O)NC(C)(C)C)C3)nc21 [Ex-2, 7-(2-(5-amino-7-methoxy-[1,2,4]triazolo[1,5-c]quinazolin-2-yl)ethyl)-N-tert-butyl-5,6,7,8-tetrahydro-[1,2,4]triazolo[4,3-a]pyrazine-3-carboxamide]	2.9 nM
COc1cccc2c1nc(N)n1nc(CCN3CCc4nccnc4C3)nc21 [Ex-55, 2-(2-(7,8-dihydropyrido[4,3-b]pyrazin-6(5H)-yl)ethyl)-7-methoxy-[1,2,4]triazolo[1,5-c]quinazolin-5-amine]	1.8 nM
COc1cccc2c1nc(N)n1nc(CCN3Cc4ccc(C(F)(F)F)cc4C3)nc21 [Ex-46, 7-methoxy-2-(2-(5-(trifluoromethyl)isoindolin-2-yl)ethyl)-[1,2,4]triazolo[1,5-c]quinazolin-5-amine]	18 nM
COc1cccc2c1nc(N)n1nc(CN3Cc4nc(C(C)C)sc4C3)nc21 [Ex-149, 2-((2-isopropyl-4H-pyrrolo[3,4-d]thiazol-5(6H)-yl)methyl)-7-methoxy-[1,2,4]triazolo[1,5-c]quinazolin-5-amine]	17.5 nM
COc1cccc2c1nc(N)n1nc(CN3CCn4c(C(F)(F)F)nnc4C3(C)C)nc21 [Ex-146, 2-((8,8-dimethyl-3-(trifluoromethyl)-5,6-dihydro-[1,2,4]triazolo[4,3-a]pyrazin-7(8H)-yl)methyl)-7-methoxy-[1,2,4]triazolo[1,5-c]quinazolin-5-amine]	29.9 nM
Nc1nc2cc(F)c(F)cc2c2nc(CCN3Cc4cccnc4C3)nn12 [Ex-99]	112 nM
COc1cccc2c1nc(N)n1nc(CCN3Cc4cnc(C)nc4C3)nc21 [Ex-23, 7-methoxy-2-(2-(2-methyl-5H-pyrrolo[3,4-d]pyrimidin-6(7H)-yl)-ethyl)-[1,2,4]triazolo[1,5-c]quinazolin-5-amine]	4.4 nM and 6.6 nM
COc1cccc2c1nc(N)n1nc(CCN3CCc4ncncc4C3)nc21 [Ex-54, 2-(2-(7,8-dihydropyrido[4,3-d]pyrimidin-6(5H)-yl)ethyl)-7-methoxy-[1,2,4]triazolo[1,5-c]quinazolin-5-amine]	4 nM
CCOC(=O)c1nnc2n1CCN(Cc1nc3c4cccc(OC)c4nc(N)n3n1)C2 [Ex-139, ethyl 7-((5-amino-7-methoxy-[1,2,4]triazolo[1,5-c]quinazolin-2-yl)methyl)-5,6,7,8-tetrahydro-[1,2,4]triazolo[4,3-a]pyrazine-3-carboxylate]	110 nM
COc1cccc2c1nc(N)n1nc(CN3CCc4ccncc4C3)nc21 [Ex-125, 2-((3,4-dihydro-2,7-naphthyridin-2(1H)-yl)methyl)-7-methoxy-[1,2,4]tri azolo[1,5-c]quinazolin-5-amine]	27.3 nM

Reference: patent US10011615B2, “Heterobicyclo-substituted [1,2,4]triazolo[1,5-c]quinazolin-5-amine compounds with A2A anatagonist properties” (Merck Sharp & Dohme Corp., priority 2012, dated 2018)
